Assay results published in the supplement of paper PMC10307832.

Legend:
Experiment in all cases: relative viability (nuclei count vs DMSO), 5 days (fraction); higher = more cells survive
[1] = tested on: NCI-H1395
How it was run: (§1)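 One day after seeding in 1536-well plates, lung cancer cell lines were dosed by pin tool. Dosing was either single-drug or a fixed anchor-drug dose plus five library-drug doses (not always all listed) in √10 steps. After 5 days, nuclei were stained in one fix-and-stain step and counted on 4× images, and relative viability is the nuclei count of treated wells over that of vehicle wells, given as the median of duplicate plates.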

[2] = tested on: HOP-62
How it was run: as §1

[3] = tested on: NCI-H838
How it was run: as §1

[4] = tested on: NCI-H1793
How it was run: as §1

[5] = tested on: NCI-H322M
How it was run: as §1

[6] = tested on: NCI-H2009
How it was run: as §1

[7] = tested on: UMC-11
How it was run: as §1

[8] = tested on: PC-14
How it was run: as §1

[9] = tested on: NCI-H647
How it was run: as §1

[10] = tested on: NCI-H2228
How it was run: as §1

[11] = tested on: NCI-H358
How it was run: as §1

[12] = tested on: NCI-H1755
How it was run: as §1

[13] = tested on: NCI-H1355
How it was run: as §1

[14] = tested on: NCI-H1993
How it was run: as §1

[15] = tested on: COR-L 105
How it was run: as §1

[16] = tested on: COR-L23
How it was run: as §1

[17] = tested on: SK-MES-1
How it was run: as §1

[18] = tested on: NCI-H1734
How it was run: as §1

[19] = tested on: NCI-H2347
How it was run: as §1

[20] = tested on: NCI-H2170
How it was run: as §1

[21] = tested on: HARA
How it was run: as §1

[22] = tested on: EKVX
How it was run: as §1

Clc1ccc(Nc2nnc(Cc3ccncc3)c3ccccc23)cc1 [Vatalanib] + CS(=O)(=O)CCNCc1ccc(-c2ccc3ncnc(Nc4ccc(OCc5cccc(F)c5)c(Cl)c4)c3c2)o1 [Lapatinib] (partner 2 µM)
relative viability ([1]; first compound 0.04 µM): 1.16
relative viability ([1]; first compound 0.1265 µM): 0.929
relative viability ([1]; first compound 0.4 µM): 0.948
relative viability ([1]; first compound 1.265 µM): 1.01
relative viability ([1]; first compound 4 µM): 0.864
relative viability ([2]; first compound 0.04 µM): 1.13
relative viability ([2]; first compound 0.4 µM): 1.06
relative viability ([2]; first compound 1.265 µM): 0.827
relative viability ([2]; first compound 4 µM): 0.989
relative viability ([3]; first compound 0.04 µM): 1.06
relative viability ([3]; first compound 0.1265 µM): 0.944
relative viability ([3]; first compound 0.4 µM): 1.09
relative viability ([3]; first compound 1.265 µM): 0.841
relative viability ([3]; first compound 4 µM): 0.961
relative viability ([4]; first compound 0.04 µM): 0.743
relative viability ([4]; first compound 0.1265 µM): 0.704
relative viability ([4]; first compound 0.4 µM): 1.05
relative viability ([4]; first compound 1.265 µM): 0.64
relative viability ([4]; first compound 4 µM): 0.81
relative viability ([5]; first compound 0.04 µM): 0.493
relative viability ([5]; first compound 0.1265 µM): 0.637
relative viability ([5]; first compound 0.4 µM): 0.509
relative viability ([5]; first compound 1.265 µM): 0.561
relative viability ([5]; first compound 4 µM): 0.535
relative viability ([6]; first compound 0.04 µM): 1.03
relative viability ([6]; first compound 0.1265 µM): 0.868
relative viability ([6]; first compound 0.4 µM): 1.1
relative viability ([6]; first compound 1.265 µM): 0.894
relative viability ([6]; first compound 4 µM): 0.919
relative viability ([7]; first compound 0.04 µM): 0.924
relative viability ([7]; first compound 0.1265 µM): 0.941
relative viability ([7]; first compound 0.4 µM): 0.976
relative viability ([7]; first compound 1.265 µM): 0.975
relative viability ([7]; first compound 4 µM): 1.13
relative viability ([8]; first compound 0.04 µM): 0.377
relative viability ([8]; first compound 0.1265 µM): 0.306
relative viability ([8]; first compound 0.4 µM): 0.334
relative viability ([8]; first compound 1.265 µM): 0.315
relative viability ([8]; first compound 4 µM): 0.288
relative viability ([9]; first compound 0.04 µM): 1.12
relative viability ([9]; first compound 0.1265 µM): 1.07
relative viability ([9]; first compound 0.4 µM): 1.26
relative viability ([9]; first compound 1.265 µM): 1.05
relative viability ([9]; first compound 4 µM): 1.04
relative viability ([10]; first compound 0.04 µM): 1.32
relative viability ([10]; first compound 0.1265 µM): 1.14
relative viability ([10]; first compound 0.4 µM): 1.06
relative viability ([10]; first compound 1.265 µM): 0.981
relative viability ([10]; first compound 4 µM): 1.28
relative viability ([11]; first compound 0.04 µM): 0.498
relative viability ([11]; first compound 0.1265 µM): 0.429
relative viability ([11]; first compound 0.4 µM): 0.564
relative viability ([11]; first compound 1.265 µM): 0.355
relative viability ([11]; first compound 4 µM): 0.457
relative viability ([12]; first compound 0.04 µM): 1.02
relative viability ([12]; first compound 0.1265 µM): 1.02
relative viability ([12]; first compound 0.4 µM): 1.09
relative viability ([12]; first compound 1.265 µM): 0.946
relative viability ([12]; first compound 4 µM): 0.951
relative viability ([13]; first compound 0.04 µM): 1.02
relative viability ([13]; first compound 0.1265 µM): 0.934
relative viability ([13]; first compound 0.4 µM): 1.14
relative viability ([13]; first compound 1.265 µM): 0.86
relative viability ([13]; first compound 4 µM): 0.887
relative viability ([14]; first compound 0.04 µM): 0.909
relative viability ([14]; first compound 0.1265 µM): 0.721
relative viability ([14]; first compound 0.4 µM): 0.828
relative viability ([14]; first compound 1.265 µM): 0.755
relative viability ([14]; first compound 4 µM): 0.747
relative viability ([15]; first compound 0.04 µM): 0.375
relative viability ([15]; first compound 0.1265 µM): 0.301
relative viability ([15]; first compound 0.4 µM): 0.404
relative viability ([15]; first compound 1.265 µM): 0.358
relative viability ([15]; first compound 4 µM): 0.353
relative viability ([16]; first compound 0.04 µM): 0.848
relative viability ([16]; first compound 0.1265 µM): 0.753
relative viability ([16]; first compound 0.4 µM): 1.01
relative viability ([16]; first compound 1.265 µM): 1.07
relative viability ([16]; first compound 4 µM): 0.868
relative viability ([17]; first compound 0.04 µM): 0.516
relative viability ([17]; first compound 0.1265 µM): 0.457
relative viability ([17]; first compound 0.4 µM): 0.464
relative viability ([17]; first compound 1.265 µM): 0.462
relative viability ([17]; first compound 4 µM): 0.429
relative viability ([18]; first compound 0.04 µM): 0.919
relative viability ([18]; first compound 0.1265 µM): 1.02
relative viability ([18]; first compound 0.4 µM): 1.11
relative viability ([18]; first compound 1.265 µM): 1.06
relative viability ([18]; first compound 4 µM): 1.09
relative viability ([19]; first compound 0.04 µM): 1.01
relative viability ([19]; first compound 0.1265 µM): 0.858
relative viability ([19]; first compound 0.4 µM): 0.931
relative viability ([19]; first compound 1.265 µM): 0.907
relative viability ([19]; first compound 4 µM): 0.833
relative viability ([20]; first compound 0.04 µM): 0.261
relative viability ([20]; first compound 0.1265 µM): 0.268
relative viability ([20]; first compound 0.4 µM): 0.286
relative viability ([20]; first compound 1.265 µM): 0.261
relative viability ([20]; first compound 4 µM): 0.264
relative viability ([21]; first compound 0.04 µM): 0.583
relative viability ([21]; first compound 0.1265 µM): 0.694
relative viability ([21]; first compound 0.4 µM): 0.746
relative viability ([21]; first compound 1.265 µM): 0.731
relative viability ([21]; first compound 4 µM): 0.948
relative viability ([22]; first compound 0.04 µM): 0.195
relative viability ([22]; first compound 0.1265 µM): 0.238
relative viability ([22]; first compound 0.4 µM): 0.547
relative viability ([22]; first compound 1.265 µM): 0.186
relative viability ([22]; first compound 4 µM): 0.216
